Assay [1] concerns the target T1, mouse bestrophin-2 (mBest2) (Mus musculus, UniProt Q8BGM5, S79C).
T1 sequence (Q8BGM5 1-508 S79C): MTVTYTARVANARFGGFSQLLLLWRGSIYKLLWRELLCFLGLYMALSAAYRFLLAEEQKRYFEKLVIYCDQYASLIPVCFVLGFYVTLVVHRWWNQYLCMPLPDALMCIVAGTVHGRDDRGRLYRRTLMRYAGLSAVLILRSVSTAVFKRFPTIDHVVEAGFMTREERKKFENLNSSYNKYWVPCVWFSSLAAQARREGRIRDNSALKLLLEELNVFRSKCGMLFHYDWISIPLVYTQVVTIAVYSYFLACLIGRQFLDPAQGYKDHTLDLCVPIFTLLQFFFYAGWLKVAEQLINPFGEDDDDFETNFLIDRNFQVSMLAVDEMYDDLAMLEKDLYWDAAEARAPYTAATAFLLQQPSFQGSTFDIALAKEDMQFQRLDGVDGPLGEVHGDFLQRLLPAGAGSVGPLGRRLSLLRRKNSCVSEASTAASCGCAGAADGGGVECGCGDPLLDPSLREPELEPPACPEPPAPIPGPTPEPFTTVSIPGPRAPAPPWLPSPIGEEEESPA
Description: whole-cell patch clamp, block of Cl- current. Format: cell-based. On the technique in general: Patch clamp records ionic current or voltage across a cell membrane.

Assay [2] concerns the target T2, mouse bestrophin-2 (mBest2) (Mus musculus, UniProt Q8BGM5).
T2 sequence (Q8BGM5 1-508): T1 sequence (Q8BGM5 1-508 S79C) with C79S
Description: whole-cell patch clamp, block of Cl- current. The class given is cell-based.

The structures appear in SMILES notation. Changes are numbered by the printed parent chain.

In the case of `O=S(=O)(O)c1cc(N=C=S)ccc1/C=C/c1ccc(N=C=S)cc1S(=O)(=O)O` [DIDS], the IC50 in assay [1] came out at 14.6 ± 3.6 µM; in assay [2], 0.0031 ± 0.0003 mM.
In turn, `N#CS` [SCN^−] showed an IC50 in assay [2] of 12 mM. This lies in the millimolar range.

Usually IC50 stands for the concentration at which inhibition is half-maximal.
